# Measured values published in PMC6173055, “Structure and function of a glycoside hydrolase family 8 endoxylanase from Teredinibacter turnerae” (Acta Crystallographica. Section D, Structural Biology, 2018).
# Target: T1, TtGH8 (Teredinibacter turnerae, UniProt C5BJ89)
# T1 construct: gene TERTU_4506; catalytic domain, residues 41-436; signal peptide and linker removed; N-terminal His6 tag cut off with 3C protease; codon-optimised, expressed in E. coli BL21
# Test: thermal shift (SYPRO Orange)
# Type: binding
# Conditions: 10 mM ligand
# T1 sequence (C5BJ89 entry or part of it): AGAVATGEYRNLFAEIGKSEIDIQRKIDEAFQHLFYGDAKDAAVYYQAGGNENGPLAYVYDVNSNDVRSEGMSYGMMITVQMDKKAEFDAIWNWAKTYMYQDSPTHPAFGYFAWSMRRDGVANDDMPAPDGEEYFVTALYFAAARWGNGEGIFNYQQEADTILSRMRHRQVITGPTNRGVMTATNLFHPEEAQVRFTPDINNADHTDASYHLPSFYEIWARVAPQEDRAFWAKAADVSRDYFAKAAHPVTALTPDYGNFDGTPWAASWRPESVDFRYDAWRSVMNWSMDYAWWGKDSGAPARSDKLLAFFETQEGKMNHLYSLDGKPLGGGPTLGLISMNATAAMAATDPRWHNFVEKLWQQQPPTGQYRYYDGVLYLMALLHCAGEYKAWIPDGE
smiles,measurement,value
"OC1OC[C@@H](O[C@@H]2OC[C@@H](O[C@@H]3OC[C@@H](O[C@@H]4OC[C@@H](O[C@@H]5OC[C@@H](O[C@@H]6OC[C@@H](O)[C@H](O)[C@H]6O)[C@H](O)[C@H]5O)[C@H](O)[C@H]4O)[C@H](O)[C@H]3O)[C@H](O)[C@H]2O)[C@H](O)[C@H]1O (stereo partly shown) [X6, xylohexaose]",increase in melting temperature,2.9 °C
